The numbers were not newly measured in patent US20060240493A1, “Cca1 as an antifungal target” (priority 2002, published 2006), which cites them from elsewhere.

For this series the following is noted: mice, DOX 2 mg/ml in 5% sucrose drinking water, approximately 5 ml every day.

With `C[C@H]1c2cccc(O)c2C(=O)C2=C(O)[C@]3(O)C(=O)C(C(N)=O)=C(O)[C@@H](N(C)C)[C@@H]3[C@@H](O)[C@@H]21` [doxycycline], the “concentration of DOX in kidney” value is recorded as > 10 mg/g of kidney, the “concentration of DOX in liver” value was > 8 mg/g of liver and the “concentration of DOX in serum” value is on record as “more than 2 mg/ml of serum”.
